{"source": "patent US6071709A", "about": "“Nerve growth factor/receptor complex” (The United States of America as represented by the …, priority 1992, dated 2000)", "key": {"p140^prototrk": {"test_system": "p140^prototrk", "assay": "NGF-dependent trk tyrosine phosphorylation in LA-N-5 neuroblastoma cells", "format": "cell-based, human", "conditions": "LA-N-5 cells, 100 ng/ml NGF for 5 min", "excerpt": "FIGS. 4A-B show NGF-dependent tyrosine phosphorylation of gp140trk in the human neuroblastoma cell lines LA-N-5, SY5Y, and dorsal root ganglia from mouse embryos. FIG. 4A, gp140trk was immunoprecipitated from untreated (-) or NGF treated (+) LA-N-5 cells (K. H. Sonnenfeld and D. N. Ishii, J. Neurosci. Res. 8:375-391 (1982)), SY5Y cells (K. H. Sonnenfeld and D. N. Ishii, (1982)), NR18 cells (M. A. Bothwell et al., Cell 21:857-866 (1980)), or PC12 cells. Immunoprecipitates were probed with P-tyr antibodies. The differences in trk protein mobilities are due to differences in glycosylation. FIG. 4B, Tyrosine phosphorylation of gp140trk in DRGs from 13.5 day or 14.5 day embryonic mice. DRGs were maintained in 100 ng/ml NGF for ≥10 min prior to lysis and immunoprecipitation with trk antibodies. trk immunoprecipitates were probed with P-tyr antibody. Tyrosine phosphorylated gp140trk from NGF-treated (+) PC12 cells or untreated (-) PC12 cells is shown for comparison. Samples were normalized for cell protein. Molecular weight markers in kDa are indicated.\nCell lines were treated with 100 ng/ml NGF for 5 min and gp140trk immunoprecipitated as in FIG. 1. DRGs were prepared by dissection for 13.5 or 14.5 day mouse embryos. […] Lysates were immunoprecipitated with trk antibody and the trk proteins were analyzed by antiphosphotyrosine immunoblots. […]"}, "trk transcripts": {"test_system": "trk transcripts", "assay": "Northern transfer analysis of trk transcripts in PC12 cells with or without NGF", "format": "cell-based, rat", "conditions": "50 ng/ml NGF, 48 hr", "procedure": "RNA preparation and Northern transfer analysis was performed as described (Martin-Zanca et al., (1990a)). Cells were treated with 50 ng/ml NGF(+) (Boehringer Mannheim Biochemicals) and were harvested 48 hr later after differentiation had occurred. 20 μg of total RNA was loaded per lane, and the filter was hybridized with a trk (Martin-Zanca et al., (1990)) or trkB (Klein et al., (1990a)) specific probe.\nThe trk gene is a member of a gene family of TK receptors that includes the related gene trkb. To determine if trk is transcribed in PC12 cells, the expression of trk transcripts was assayed by Northern transfer analysis with a full-length trk cDNA probe (R. Klein et al., (1990a)). PC12 cells contained trk transcripts (FIG. 7). The level of trk transcripts was not affected by the addition of NGF. To determine whether additional trk-related genes were transcribed in PC12 cells, mRNA was hybridized at low stringency with the highly conserved trk TK domain. trk transcripts have been found in LA-N-5 cells, Sy5y cells and DRG from 13.5 day or 14.5 day embryonic mice."}, "gp145^trkB": {"test_system": "gp145^trkB", "assay": "gp145^trkB tyrosine phosphorylation in trkB-expressing NIH 3T3 cells (pJM8 lines), immunoprecipitation and α-Ptyr Western", "format": "cell-based, rat", "conditions": "pJM8 trkB-expressing NIH 3T3 cells, 100 ng/ml factor, 5 min", "procedure": "A 4.8 kb cDNA encompassing the coding domain of rat trkB (Middlemas et al., (1991)) was cloned into the pMEX plasmid (pJM8) downstream of the MSV promoter. NIH 3T3 cells were cotransfected with the pJM8 plasmid and a plasmid containing the neomycin phosphotransferase gene (L. F. Parada et al., Nature 312:649-651 (1984)), and G418-resistant colonies were selected. PC12 cells (Greene and Tischler, 1976) were grown in DMEM with 10% horse serum and 5% fetal calf serum. NIH 3T3 cells and the derivative cells lines were maintained in DMEM medium containing 10% calf serum. All cells were maintained in a humidified incubator at 37° C. in 5% CO2.\nApproximately 10^7 cells were treated at 37° C. for 5 min with 100 ng/ml growth factors or at the concentrations and lengths of time noted in the text. NP-40 plate lysis and gp145^trkB immunoprecipitation with anti-serum 443 were performed as previously described (Kaplan et al., (1990), (1991)). The phosphotyrosine content was analyzed by Western transfer using monoclonal antibody 4G10 as previously described (Morrison et al., (1989)).\nThe product of the trk proto-oncogene (gp140^proto-trk) is tyrosine phosphorylated in response to NGF in PC12 cells, NGF-responsive neuroblastoma cells, heterologous fibroblasts and Xenopus oocytes (Kaplan et al., (1991); A. R. Nebreda et al., Science 252:558-560 (1991); Klein et al., (1991)). Next it was examined whether NGF elicited tyrosine phosphorylation of gp145^trkB in trkB-expressing NIH 3T3 cells. Cell line pJM8-3 was treated with high concentrations of NGF (100 ng/ml) for 5 minutes. The cells were lysed, immunoprecipitated with anti-trkB antiserum 443, transferred to nitrocellulose filters and probed with anti-phosphotyrosine (α-Ptyr) antibodies. As a negative control, untransfected NIH-3T3 cells were treated in parallel, while PC12 cells were used as a positive control for NGF responsiveness (Kaplan et al., (1991)).\nBDNF and NT-3 are neurotrophic factors that display many functional and structural features that are reminiscent of NGF. The genes encoding BDNF and NT-3 have recently been cloned and used to express high levels of the biologically active factors in pure form (A. Rosenthal et al., Neuron 4:773 (1990)). It was tested whether these NGF-related neurotrophic factors would stimulate phosphorylation of the trkB glycoprotein by exposing the pJM-8 cell lines to 100 ng/ml of NGF, BDNF, or NT-3 (~4 nM) for 5 minutes. The cells were then lysed and the lysates incubated with a trkB anti-peptide antiserum (443) with or without excess peptide. After transfer to nitrocellulose filters, the trkB proteins were probed with an anti-phosphotyrosine (α-ptyr) monoclonal antibody (FIG. 10) (Kaplan et al. (1991)). […] Thus, both neurotrophic factors NT-3 and BDNF can elicit tyrosine phosphorylation of gp145^trkB in a manner similar to that observed for NGF stimulation of the trk receptor. Similar results have been obtained with NT-3 and BDNF in Rat2 cells expressing trkB.\nHaving detected gp145^trkB phosphorylation in response to BDNF and NT-3, it was next determined whether unrelated polypeptide growth factors were capable of eliciting a similar response. Platelet-derived growth factor (PDGF; 100 ng/ml), epidermal growth factor (EGF; 100 ng/ml), insulin (100 ng/ml), and basic fibroblast growth factor (bFGF; 100 ng/ml), were added independently to exponentially growing cultures of pJM8-3 cells.\nThe previous studies were done in the presence of high concentrations of neurotrophic factors. Dose response experiments were next performed to determine the range of concentrations at which phosphorylation of the trkB receptor was stimulated by NT-3 or BDNF. Cells were incubated with quantities of NT-3 or BDNF ranging from 0.1 ng/ml to 250 ng/ml and treated as described in FIG. 12. […]"}}, "note": "Entries after “also recorded” stand apart in the source; their conditions may differ."}
{"substance": "NGF: neurotrophic polypeptide factor, nerve growth factor; ligand of trk proto-oncogene receptor", "values": [{"measurement": "p140^prototrk tyrosine phosphorylation", "setting": "p140^prototrk", "result": "enhanced"}, {"measurement": "level of trk transcripts", "setting": "trk transcripts", "result": "not affected"}, {"measurement": "tyrosine phosphorylation of gp145^trkB", "setting": "gp145^trkB", "result": "no increase in phosphorylation; also recorded: no detectable effect"}]}
